Values quoted from earlier work in patent US20170232011A1, “PHARMACEUTICAL COMPOSITION AND METHOD FOR THE TREATMENT OF URINARY TRACT INFECTIONS” (priority 2016, published 2017).

What was measured:
[1] = test system: Staphylococcus saprophyticus
[2] = test system: Coagulase negative staphylococci
[3] = 100 mg oral dose

Row | Compound | activity against E. coli (E. coli) | activity against Staphylococcus saprophyticus [1] | activity against Coagulase negative staphylococci [2] | activity against Enterococcus faecalis (Enterococcus faecalis) | activity against Staphylococcus aureus (Staphylococcus aureus) | activity against Streptococcus agalactiae (Streptococcus agalactiae) | activity against Citrobacter species (Citrobacter species) | activity against Klebsiella species (Klebsiella species) | plasma levels ([3]; plasma) | level in the urine ([3]; urine) [µg/mL] | oral dose excreted directly into the urine chemically unchanged [%]
1 | O=C1CN(N=Cc2ccc([N+](=O)[O-])o2)C(=O)N1 [Nitrofurantoin, 1-[[[5-nitro-2-furanyl]methylene]amino]-2,4-imidazolidinedione] | good activity | good activity | good activity | good activity | good activity | good activity | good activity | good activity | less than 1 μg/ml | 200 | 
2 | Nc1ccc(N=Nc2ccccc2)c(N)n1 [Phenazopyridine, 3-phenyldiazenylpyridine-2,6-diamine] |  |  |  |  |  |  |  |  |  |  | ~65
